Assay results reported in the supplement of paper PMC11061612.

Columns and labels:
Venetoclax = compound: CC1(C)CCC(CN2CCN(c3ccc(C(=O)NS(=O)(=O)c4ccc(NCC5CCOCC5)c([N+](=O)[O-])c4)c(Oc4cnc5[nH]ccc5c4)c3)CC2)=C(c2ccc(Cl)cc2)C1 [Venetoclax]; details: max 1 µM
Procedure, shortened: (§1)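 Cancer cell lines in 1536-well plates (7.5 μl DMEM/F12 or RPMI, 10% FBS) were held 24 hours at 37°C and 5% CO2 and then dosed for 72 hours at a final DMSO of typically 0.2%. Viability was taken from CellTiter-Glo 2.0 luminescence, scaled between blank-well and DMSO-well means. Curves were fitted as two-parameter logistic models with a non-linear mixed effects model, from which the single-agent IC50 was taken.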

Selumetinib = compound: Cn1cnc2c(F)c(Nc3ccc(Br)cc3Cl)c(C(=O)NOCCO)cc21 [Selumetinib]; details: max 10 µM
Procedure, shortened: as §1

Taselisib = compound: Cc1nc(-c2cn3c(n2)-c2ccc(-c4cnn(C(C)(C)C(N)=O)c4)cc2OCC3)n(C(C)C)n1 [Taselisib]; details: max 10 µM
Procedure, shortened: as §1

Trametinib = compound: CC(=O)Nc1cccc(-n2c(=O)n(C3CC3)c(=O)c3c(Nc4ccc(I)cc4F)n(C)c(=O)c(C)c32)c1 [Trametinib]; details: max 1 µM
Procedure, shortened: as §1

Savolitinib = compound: C[C@@H](c1ccc2nccn2c1)n1nnc2ncc(-c3cnn(C)c3)nc21 [Savolitinib]; details: max 1 µM
Procedure, shortened: as §1

Doxorubicin = compound: COc1cccc2c1C(=O)c1c(O)c3c(c(O)c1C2=O)C[C@@](O)(C(=O)CO)C[C@@H]3O[C@H]1C[C@H](N)[C@H](O)[C@H](C)O1 [Doxorubicin]; details: max 1 µM
Procedure, shortened: as §1

Alisertib = compound: COc1cc(Nc2ncc3c(n2)-c2ccc(Cl)cc2C(c2c(F)cccc2OC)=NC3)ccc1C(=O)O [Alisertib]; details: max 10 µM
Procedure, shortened: as §1

AZD1390 = compound: CC(C)n1c(=O)n(C)c2cnc3cc(F)c(-c4ccc(OCCCN5CCCCC5)nc4)cc3c21 [AZD1390]; details: max 0.3 µM
Procedure, shortened: as §1

Gefitinib = compound: COc1cc2ncnc(Nc3ccc(F)c(Cl)c3)c2cc1OCCCN1CCOCC1 [Gefitinib]; details: max 10 µM
Procedure, shortened: as §1

Prexasertib = compound: COc1cccc(OCCCN)c1-c1cc(Nc2cnc(C#N)cn2)n[nH]1 [Prexasertib]; details: max 1 µM
Procedure, shortened: as §1

Lapatinib = compound: CS(=O)(=O)CCNCc1ccc(-c2ccc3ncnc(Nc4ccc(OCc5cccc(F)c5)c(Cl)c4)c3c2)o1 [Lapatinib]; details: max 10 µM
Procedure, shortened: as §1

SN-38 = compound: CCc1c2c(nc3ccc(O)cc13)-c1cc3c(c(=O)n1C2)COC(=O)[C@]3(O)CC [SN-38]; details: max 0.3 µM
Procedure, shortened: as §1

Crizotinib = compound: C[C@@H](Oc1cc(-c2cnn(C3CCNCC3)c2)cnc1N)c1c(Cl)ccc(F)c1Cl [Crizotinib]; details: max 10 µM
Procedure, shortened: as §1

Capivasertib = compound: C1CN(CCC1(C(=O)N[C@@H](CCO)C2=CC=C(C=C2)Cl)N)C3=NC=NC4=C3C=CN4 [Capivasertib]; details: max 10 µM
Procedure, shortened: as §1

Palbociclib = compound: CC(=O)c1c(C)c2cnc(Nc3ccc(N4CCNCC4)cn3)nc2n(C2CCCC2)c1=O [Palbociclib]; details: max 10 µM
Procedure, shortened: as §1

AZD8186 = compound: C[C@@H](Nc1cc(F)cc(F)c1)c1cc(C(=O)N(C)C)cc2c(=O)cc(N3CCOCC3)oc12 [AZD8186]; details: max 3 µM
Procedure, shortened: as §1

AZD0156 = compound: CN(C)CCCOc1ccc(-c2ccc3ncc4c(c3c2)n(C2CCOCC2)c(=O)n4C)cn1 [AZD0156]; details: max 3 µM
Procedure, shortened: as §1

AZD5153 = compound: COc1nnc2ccc(N3CCC(c4ccc(OCCN5CCN(C)C(=O)[C@H]5C)cc4)CC3)nn12 [AZD5153]; details: max 1 µM
Procedure, shortened: as §1

Olaparib = compound: O=C(c1cc(Cc2n[nH]c(=O)c3ccccc23)ccc1F)N1CCN(C(=O)C2CC2)CC1 [Olaparib]; details: max 10 µM
Procedure, shortened: as §1

SG3199 = compound: CC1=CN2[C@@H](C1)C=NC3=CC(=C(C=C3C2=O)OC)OCCCCCOC4=C(C=C5C(=C4)N=C[C@@H]6CC(=CN6C5=O)C)OC [SG3199]; details: max 0.001 µM
Procedure, shortened: as §1

AZD6738 = compound: C[C@@H]1COCCN1C2=NC(=NC(=C2)C3(CC3)[S@](=N)(=O)C)C4=C5C=CNC5=NC=C4 [AZD6738]; details: max 10 µM
Procedure, shortened: as §1

AZD5991 = compound: Cc1c2c(nn1C)CSCc1cc(n(C)n1)CSc1cc(c3ccccc3c1)OCCCc1c(C(=O)O)n(C)c3c-2c(Cl)ccc13 [AZD5991]; details: max 1 µM
Procedure, shortened: as §1

Dasatinib = compound: CC1=C(C(=CC=C1)Cl)NC(=O)C2=CN=C(S2)NC3=CC(=NC(=N3)C)N4CCN(CC4)CCO [Dasatinib]; details: max 2 µM
Procedure, shortened: as §1

AZD2811 = compound: CCN(CCO)CCCOc1ccc2c(Nc3cc(CC(=O)Nc4cccc(F)c4)[nH]n3)ncnc2c1 [AZD2811]; details: max 1 µM
Procedure, shortened: as §1

AZD4320 = compound: CN(CC[C@H](CSC1=CC=CC=C1)NC2=C(C=C(C=C2)S(=O)(=O)NC(=O)C3=CC=C(C=C3)N4CCC(CC4)[C@H](C5=CC=CC=C5C6=CC=C(C=C6)Cl)O)S(=O)(=O)C(F)(F)F)CCO [AZD4320]; details: max 1 µM
Procedure, shortened: as §1

AZD7648 = compound: Cc1cc2ncnn2cc1Nc1ncc2c(n1)n(C1CCOCC1)c(=O)n2C [AZD7648]; details: max 10 µM
Procedure, shortened: as §1

AZD1775 = compound: C=CCn1c(=O)c2cnc(Nc3ccc(N4CCN(C)CC4)cc3)nc2n1-c1cccc(C(C)(C)O)n1 [AZD1775]; details: max 3 µM
Procedure, shortened: as §1

Cell Line | IC50, cell viability 72 h (Venetoclax) [nM] | IC50, cell viability 72 h (Selumetinib) [nM] | IC50, cell viability 72 h (Taselisib) [nM] | IC50, cell viability 72 h (Trametinib) [nM] | IC50, cell viability 72 h (Savolitinib) [nM] | IC50, cell viability 72 h (Doxorubicin) [nM] | IC50, cell viability 72 h (Alisertib) [nM] | IC50, cell viability 72 h (AZD1390) [nM] | IC50, cell viability 72 h (Gefitinib) [nM] | IC50, cell viability 72 h (Prexasertib) [nM] | IC50, cell viability 72 h (Lapatinib) [nM] | IC50, cell viability 72 h (SN-38) [nM] | IC50, cell viability 72 h (Crizotinib) [nM] | IC50, cell viability 72 h (Capivasertib) [nM] | IC50, cell viability 72 h (Palbociclib) [nM] | IC50, cell viability 72 h (AZD8186) [nM] | IC50, cell viability 72 h (AZD0156) [nM] | IC50, cell viability 72 h (AZD5153) [nM] | IC50, cell viability 72 h (Olaparib) [nM] | IC50, cell viability 72 h (SG3199) [nM] | IC50, cell viability 72 h (AZD6738) [nM] | IC50, cell viability 72 h (AZD5991) [nM] | IC50, cell viability 72 h (Dasatinib) [nM] | IC50, cell viability 72 h (AZD2811) [nM] | IC50, cell viability 72 h (AZD4320) [nM] | IC50, cell viability 72 h (AZD7648) [nM] | IC50, cell viability 72 h (AZD1775) [nM]
JHH-1 (Hepatocellular Carcinoma) | > 1000 | > 10000 | > 10000 | 410 | > 1000 | > 1000 | > 10000 | > 300 | > 10000 | 259 | > 10000 | > 300 | > 10000 | > 10000 | > 10000 | > 3000 | > 3000 | > 1000 | > 10000 | > 1 | > 10000 | > 1000 | > 2000 | > 1000 | > 1000 | > 10000 | 1270
NCI-H196 (Small Cell Lung Carcinoma) | > 1000 | > 10000 | > 10000 | > 1000 | > 1000 | > 1000 | > 10000 | > 300 | > 10000 | 170 | > 10000 | > 300 | > 10000 | > 10000 | > 10000 | > 3000 | > 3000 | > 1000 | > 10000 | > 1 | > 10000 | > 1000 | > 2000 | > 1000 | > 1000 | > 10000 | 2110
NCI-H1155 (Non-Small Cell Lung Carcinoma) | > 1000 | > 10000 | > 10000 | > 1000 | > 1000 | 617 | 9880 | > 300 | > 10000 | 49.1 | > 10000 | 4.68 | > 10000 | 8340 | > 10000 | > 3000 | > 3000 | 541 | > 10000 | > 1 | 5970 | > 1000 | > 2000 | > 1000 | > 1000 | > 10000 | > 3000
NCI-H1563 (Lung Adenocarcinoma) | > 1000 | > 10000 | 2480 | > 1000 | > 1000 | > 1000 | > 10000 | > 300 | > 10000 | > 1000 | > 10000 | > 300 | > 10000 | > 10000 | > 10000 | 2270 | > 3000 | > 1000 | > 10000 | > 1 | > 10000 | > 1000 | 1120 | > 1000 | > 1000 | > 10000 | > 3000
NCI-H1623 (Lung Adenocarcinoma) | > 1000 | > 10000 | 340 | 229 | > 1000 | > 1000 | > 10000 | > 300 | 714 | 89.5 | 902 | 7.47 | > 10000 | > 10000 | > 10000 | > 3000 | > 3000 | > 1000 | > 10000 | > 1 | 8050 | 163 | > 2000 | > 1000 | > 1000 | > 10000 | > 3000
OCI-AML5 (Acute Myeloid Leukemia) | 50.6 | 2120 | 2190 | 28.9 | > 1000 | 658 | 1130 | > 300 | > 10000 | 13.4 | > 10000 | 9.54 | 2410 | > 10000 | 6640 | > 3000 | > 3000 | 323 | > 10000 | > 1 | 2240 | 58.8 | > 2000 | 18.6 | 42.7 | > 10000 | 543
OVTOKO (Ovarian Carcinoma) | > 1000 | > 10000 | 693 | > 1000 | > 1000 | > 1000 | > 10000 | > 300 | > 10000 | 714 | > 10000 | > 300 | > 10000 | 8520 | > 10000 | 2650 | > 3000 | 948 | > 10000 | > 1 | > 10000 | > 1000 | 56.4 | > 1000 | > 1000 | > 10000 | 2100
RERF-LC-KJ (Lung Adenocarcinoma) | > 1000 | > 10000 | 6500 | > 1000 | > 1000 | > 1000 | > 10000 | > 300 | > 10000 | > 1000 | > 10000 | 240 | > 10000 | > 10000 | > 10000 | > 3000 | > 3000 | 83.7 | > 10000 | > 1 | > 10000 | > 1000 | > 2000 | > 1000 | > 1000 | > 10000 | > 3000
